Measured values taken from US4416884A, “Piperazinylbenzoheterocyclic compounds” (Otsuka Pharmaceutical Co., Ltd., priority 1978, dated 1983).
≈ marks a conversion by molar mass, not a printed value. Read-outs that look alike come from different tables or passages of the source.

How the values were obtained:
Assay in all cases: antimicrobial activity, serial dilution method on agar plate
Assay type in all cases: cell-based
[1] = test system: Pseudomonas aeruginosa E-2
Method: (§1) The antimicrobial activity of the following test compounds on various test organisms listed below was determined by the serial dilution method on agar plate (Heart Infusion agar produced by Difco Co.) (see CHEMOTHERAPY 22, pp. 1126-1128 (1974)), and the minimum inhibitory concentrations (mcg/ml) obtained are shown in Table 1 below.
(§2) A sample of each test organism was prepared so that the population of the organism was 1×10^8 cells/ml (O.D. 660 mμ=0.07 to 0.16) and 1×10^6 cells/ml (which was obtained by diluting the above 1×10^8 cells/ml preparation).

[2] = test system: Salmonella typhi 0-901 (NCTC 8393); details: Salmonella enterica
Method: as §1, §2

Klebsiella pneumoniae = test system: Klebsiella pneumoniae
Method: as §1, §2

[3] = test system: Pseudomonas aeruginosa ATCC 10145
Method: as §1, §2

Shigella Sonnei EW 33 = details: inoculum 1 × 10^8 cells/ml, read-out: Minimum Inhibitory Concentration
Method: as §1, §2

[4] = test system: Streptococcus pyogenes IID S-23
Method: as §1, §2

[5] = test system: Staphylococcus aureus FDA 209 P
Method: as §1, §2

[6] = test system: Serattia marcescens IFO 12648
Method: as §1, §2

[7] = test system: Pseudomonas aeruginosa NCTC 10490
Method: as §1, §2

Proteus rettgeri NIH 96 = details: Providencia rettgeri
Method: as §1, §2

[8] = test system: Escherichia Coli NIHJ JC-2 (IFO 12734); details: Escherichia coli, read-out: Minimum Inhibitory Concentration
Method: as §1, §2

[9] = E2, inoculum 1 × 10^8 cells/ml, read-out: Minimum Inhibitory Concentration
[10] = read-out: Minimum Inhibitory Concentration, inoculum 1 × 10^8 cells/ml
[11] = inoculum 1 × 10^8 cells/ml, read-out: Minimum Inhibitory Concentration
[12] = ATCC10145, inoculum 1 × 10^8 cells/ml, read-out: Minimum Inhibitory Concentration
[13] = IIDS23, read-out: Minimum Inhibitory Concentration, inoculum 1 × 10^8 cells/ml
[14] = FDA209, inoculum 1 × 10^8 cells/ml, read-out: Minimum Inhibitory Concentration
[15] = NCTC10490, inoculum 1 × 10^8 cells/ml, read-out: Minimum Inhibitory Concentration
[16] = NIH96, inoculum 1 × 10^8 cells/ml, read-out: Minimum Inhibitory Concentration
[17] = IIDS23, inoculum 1 × 10^8 cells/ml, read-out: Minimum Inhibitory Concentration

Row | SMILES | MIC [1, 9] | MIC [2, 10] | MIC (Klebsiella pneumoniae; [11]) | MIC [3, 12] | MIC (Shigella Sonnei EW 33) | MIC [4, 13] | MIC [5, 14] | MIC [6, 11] | MIC [7, 15] | MIC (Proteus rettgeri NIH 96; [16]) | MIC ([8]; inoculum 1 × 10^8 cells/ml) | MIC [4, 17] | also measured
1 | CC1CCc2c(N3CCN(CC(F)(F)F)CC3)c(Cl)cc3c(=O)c(C(=O)O)cn1c23 (centres unmarked) [c] | 6.25 µg/mL (≈ 14.1 µM) | 0.2 µg/mL (≈ 0.451 µM) | 0.39 µg/mL (≈ 0.879 µM) | 3.13 µg/mL (≈ 7.05 µM) | 1.56 µg/mL (≈ 3.51 µM) | 1.56 µg/mL (≈ 3.51 µM) | 0.1 µg/mL (≈ 0.225 µM) | 0.39 µg/mL (≈ 0.879 µM) | 0.78 µg/mL (≈ 1.76 µM) | 0.39 µg/mL (≈ 0.879 µM) | 0.39 µg/mL (≈ 0.879 µM) | – | –
2 | CC1CCc2c(N3CCN(C(=O)C(F)(F)C(F)(F)F)CC3)c(Cl)cc3c(=O)c(C(=O)O)cn1c23 (centres unmarked) [d] | 6.25 µg/mL (≈ 12.3 µM) | 0.1 µg/mL (≈ 0.197 µM) | 0.39 µg/mL (≈ 0.768 µM) | 1.56 µg/mL (≈ 3.07 µM) | 0.78 µg/mL (≈ 1.54 µM) | – | 1.56 µg/mL (≈ 3.07 µM) | 0.2 µg/mL (≈ 0.394 µM) | 3.13 µg/mL (≈ 6.16 µM) | 0.2 µg/mL (≈ 0.394 µM) | 0.39 µg/mL (≈ 0.768 µM) | 12.5 µg/mL (≈ 24.6 µM) | –
3 | CC1CCc2c(N3CCN(C(=O)C(F)(F)C(F)(F)C(F)(F)F)CC3)c(Cl)cc3c(=O)c(C(=O)O)cn1c23 (centres unmarked) [e] | – | – | – | – | 0.78 µg/mL (≈ 1.4 µM) | 6.25 µg/mL (≈ 11.2 µM) | – | – | – | – | – | – | MIC ([1]; E2, read-out: Minimum Inhibitory Concentration, inoculum 1 × 10^8 cells/ml): 6.25 µg/mL (≈ 11.2 µM); MIC [2, 11]: 0.2 µg/mL (≈ 0.359 µM); MIC (Klebsiella pneumoniae; [10]): 0.39 µg/mL (≈ 0.699 µM); MIC ([3]; ATCC10145, read-out: Minimum Inhibitory Concentration, inoculum 1 × 10^8 cells/ml): 1.56 µg/mL (≈ 2.8 µM); MIC ([5]; FDA209, read-out: Minimum Inhibitory Concentration, inoculum 1 × 10^8 cells/ml): 3.13 µg/mL (≈ 5.61 µM); MIC [6, 10]: 0.2 µg/mL (≈ 0.359 µM); MIC ([7]; NCTC10490, read-out: Minimum Inhibitory Concentration, inoculum 1 × 10^8 cells/ml): 3.13 µg/mL (≈ 5.61 µM); MIC (Proteus rettgeri NIH 96; NIH96, read-out: Minimum Inhibitory Concentration, inoculum 1 × 10^8 cells/ml): 0.2 µg/mL (≈ 0.359 µM); MIC [8]: 0.39 µg/mL (≈ 0.699 µM)
4 | CC1CCc2c(N3CCN(CCO)CC3)c(F)cc3c(=O)c(C(=O)O)cn1c23 (centres unmarked) [f] | 12.5 µg/mL (≈ 32.1 µM) | 0.39 µg/mL (≈ 1 µM) | 0.78 µg/mL (≈ 2 µM) | 6.25 µg/mL (≈ 16 µM) | 0.78 µg/mL (≈ 2 µM) | – | 0.78 µg/mL (≈ 2 µM) | 0.39 µg/mL (≈ 1 µM) | 12.5 µg/mL (≈ 32.1 µM) | 0.2 µg/mL (≈ 0.514 µM) | 0.39 µg/mL (≈ 1 µM) | 3.13 µg/mL (≈ 8.04 µM) | –
5 | COc1ccc(CN2CCN(c3c(Cl)cc4c(=O)c(C(=O)O)cn5c4c3CCC5C)CC2)cc1 (centres unmarked) [g] | 12.5 µg/mL (≈ 25.9 µM) | 0.78 µg/mL (≈ 1.62 µM) | 0.78 µg/mL (≈ 1.62 µM) | 6.25 µg/mL (≈ 13 µM) | 1.56 µg/mL (≈ 3.24 µM) | – | 0.78 µg/mL (≈ 1.62 µM) | 0.39 µg/mL (≈ 0.809 µM) | 12.5 µg/mL (≈ 25.9 µM) | 0.1 µg/mL (≈ 0.207 µM) | 0.78 µg/mL (≈ 1.62 µM) | 3.13 µg/mL (≈ 6.49 µM) | –
6 | C=CCN1CCN(c2c(Cl)cc3c(=O)c(C(=O)O)cn4c3c2CCC4C)CC1 (centres unmarked) [h] | 12.5 µg/mL (≈ 31.1 µM) | 0.78 µg/mL (≈ 1.94 µM) | 0.78 µg/mL (≈ 1.94 µM) | 12.5 µg/mL (≈ 31.1 µM) | 1.56 µg/mL (≈ 3.88 µM) | – | 0.78 µg/mL (≈ 1.94 µM) | 0.78 µg/mL (≈ 1.94 µM) | 12.5 µg/mL (≈ 31.1 µM) | 0.2 µg/mL (≈ 0.498 µM) | 0.78 µg/mL (≈ 1.94 µM) | 3.13 µg/mL (≈ 7.79 µM) | –
7 | C#CCN1CCN(c2c(Cl)cc3c(=O)c(C(=O)O)cn4c3c2CCC4C)CC1 (centres unmarked) [i] | 25 µg/mL (≈ 62.5 µM) | 0.78 µg/mL (≈ 1.95 µM) | 0.78 µg/mL (≈ 1.95 µM) | 12.5 µg/mL (≈ 31.3 µM) | 1.56 µg/mL (≈ 3.9 µM) | 1.56 µg/mL (≈ 3.9 µM) | 0.39 µg/mL (≈ 0.975 µM) | 0.78 µg/mL (≈ 1.95 µM) | 12.5 µg/mL (≈ 31.3 µM) | 0.2 µg/mL (≈ 0.5 µM) | – | – | MIC [8]: 1.56 µg/mL (≈ 3.9 µM)
